Measured values as given in patent US20200087248A1, “Fluoroallylamine Derivative And Use Thereof” (SICHUAN KELUN-BIOTECH BIOPHARMACEUTICAL CO., LTD., priority 2017, published 2020).
Where a name gives a salt, the structure may show the parent alone.

Assays:
[1] = biological target: T1, VAP-1 in abdominal fat of mice (Mus musculus, UniProt O70423); assay: Inhibition of the enzymatic activity of VAP-1 ex-vivo, abdominal fat after oral dosing; format: in vivo, BALBc mice; details: 0.5 mg/kg oral, abdominal fat collected after six hours; for inhibition at 0.5 mg/kg: mouse, read-out: Inhibition rate (%) against the enzymatic activity of VAP-1 (ex-vivo)
T1 construct: abdominal fat was collected and homogenized; from tissue; host or cells: abdominal fat of BALBc mice (homogenate supernatant)
T1 sequence (O70423 1-765): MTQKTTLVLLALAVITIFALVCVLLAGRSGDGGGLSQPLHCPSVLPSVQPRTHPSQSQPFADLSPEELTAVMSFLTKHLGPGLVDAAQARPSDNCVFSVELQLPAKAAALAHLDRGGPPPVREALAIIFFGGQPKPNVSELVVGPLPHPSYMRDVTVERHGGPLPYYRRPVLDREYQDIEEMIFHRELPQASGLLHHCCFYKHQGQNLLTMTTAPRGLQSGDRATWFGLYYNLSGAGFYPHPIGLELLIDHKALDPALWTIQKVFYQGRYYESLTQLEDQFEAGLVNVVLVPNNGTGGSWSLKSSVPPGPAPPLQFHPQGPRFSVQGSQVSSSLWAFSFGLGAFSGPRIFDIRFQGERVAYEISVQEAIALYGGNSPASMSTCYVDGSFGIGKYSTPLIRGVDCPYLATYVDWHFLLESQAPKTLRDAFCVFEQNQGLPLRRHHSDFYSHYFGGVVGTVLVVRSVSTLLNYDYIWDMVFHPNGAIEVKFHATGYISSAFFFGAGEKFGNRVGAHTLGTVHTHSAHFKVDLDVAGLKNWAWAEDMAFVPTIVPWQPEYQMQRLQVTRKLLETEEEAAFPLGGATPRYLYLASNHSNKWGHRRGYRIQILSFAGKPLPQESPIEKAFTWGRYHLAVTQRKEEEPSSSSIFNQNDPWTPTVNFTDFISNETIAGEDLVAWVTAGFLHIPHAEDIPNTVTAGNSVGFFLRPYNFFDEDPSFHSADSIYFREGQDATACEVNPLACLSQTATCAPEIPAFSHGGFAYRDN
Protocol: Inhibition Experiment Against the Enzymatic Activity (ex-vivo)
Tissue homogenate buffer solution (20 mM HEPES, pH 7.2, 1 mM EDTA, 250 mM sucrose, PMSF 0.2 mM)
Reaction buffer solution: 50 mM PBS, pH 7.4
Test kit: Amplex® Red Monoamine Oxidase Assay, Manufacturer: ThermoFisher
BALBc mice were administrated orally with different doses of the test compound, and the vehicle group was used as the control group. After six hours, abdominal fat was collected and homogenized at 1:20 (w/v) with the pre-cooled homogenate buffer solution, and thereafter, the homogenate was centrifuged at 10,000 g and 4° C. or 10 minutes, the supernatant was collected and stored at -80° C. for further use.
A test sample was diluted with the reaction buffer solution and successively added with the inhibition solution A: 1 μM Clorgyline+1 μM pargylin, to inhibit the activities of MAO-A and MAO-B, and the inhibition solution B: 1 μM Clorgyline+1 μM Pargylin+1 μM Mofegiline as the blank control, and after being incubated at room temperature for 20 min, 500 μM benzylamine hydrochloride, 1 U/mL HRP and 200 μM Amplex Red reagent were added to start the reaction. By referring to the method in “Experiment of inhibiting the enzymatic activity of VAP-1”, relative activity of each dose group was calculated, wherein the ratio of the fluorescent signal to reaction time in the linear range is the reaction rate, and the vehicle group is the positive control, thereby to study the inhibition of the compound against the enzymatic activity of VAP-1 in abdominal fat of mice.

[2] = biological target: T2, CYP1A2 (Homo sapiens, UniProt P05177); assay: Inhibition of cytochrome P450 isoenzyme CYP1A2 (P450-Glo); format: in vitro ADME; details: estimated from inhibition rates at 10 μM and 1 μM
T2 construct: purchased Promega
T2 sequence (P05177 1-516): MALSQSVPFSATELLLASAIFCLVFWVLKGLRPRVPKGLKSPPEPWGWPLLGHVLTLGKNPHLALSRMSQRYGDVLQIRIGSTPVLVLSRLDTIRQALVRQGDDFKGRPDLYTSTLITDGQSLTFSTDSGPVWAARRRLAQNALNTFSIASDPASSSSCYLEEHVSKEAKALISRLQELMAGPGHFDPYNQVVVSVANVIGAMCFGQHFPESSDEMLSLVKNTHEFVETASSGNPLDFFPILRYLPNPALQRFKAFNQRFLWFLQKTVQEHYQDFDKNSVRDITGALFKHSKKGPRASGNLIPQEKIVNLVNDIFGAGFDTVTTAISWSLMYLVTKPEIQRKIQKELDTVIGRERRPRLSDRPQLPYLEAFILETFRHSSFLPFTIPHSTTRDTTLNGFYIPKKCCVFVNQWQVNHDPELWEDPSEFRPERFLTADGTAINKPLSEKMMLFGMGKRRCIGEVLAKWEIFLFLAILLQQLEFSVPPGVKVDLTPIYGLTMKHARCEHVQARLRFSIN
Protocol: (§1) Inhibition Experiment Against Cytochrome P450 Isoenzyme (CYP)
P450-Glo™ CYP1A2 Screening System, manufacturer: Promega
(§2) According to the specification of the test kit, 10 nM CYP1A2, 5 nMCYP2D6, and 1 nM CYP3A4 proteins and corresponding substrates (100 μM, 30 μM, 3 μM) as well as the compound were pre-incubating respectively for 10 min, G6PDH-G6P-NADP regeneration system was added to start the reaction, a test reagent was added later, after 20 min, the chemical luminescent signals were detectted.
(§3) Percent inhibition rate (%)=(1-(signal of each compound concentration group-signal of the blank group)/(signal of the negative control-signal of the blank group))*100.
(§4) According to the inhibition rates of the compound at different concentrations against P450 enzyme, the half inhibition concentration (IC5o) or range was estimated.
(§5) IC50=X*(1-percent inhibition rate (%))/percent inhibition rate (%), wherein, X is the test concentration of the compound.
(§6) According to the above method, the inhibition of the compound at the concentrations 10 μM, and 1 μM, against three CYPs were measured, and the results were shown in the following Tables 10-12: […]

[3] = biological target: T3, CYP3A4 (Homo sapiens, UniProt P08684); assay: Inhibition of cytochrome P450 isoenzyme CYP3A4 (P450-Glo); format: in vitro ADME; details: estimated from inhibition rates at 10 μM and 1 μM; for IC50: read-out: IC50, inhibition against CYP3A4
T3 construct: purchased Promega
T3 sequence (P08684 whole entry): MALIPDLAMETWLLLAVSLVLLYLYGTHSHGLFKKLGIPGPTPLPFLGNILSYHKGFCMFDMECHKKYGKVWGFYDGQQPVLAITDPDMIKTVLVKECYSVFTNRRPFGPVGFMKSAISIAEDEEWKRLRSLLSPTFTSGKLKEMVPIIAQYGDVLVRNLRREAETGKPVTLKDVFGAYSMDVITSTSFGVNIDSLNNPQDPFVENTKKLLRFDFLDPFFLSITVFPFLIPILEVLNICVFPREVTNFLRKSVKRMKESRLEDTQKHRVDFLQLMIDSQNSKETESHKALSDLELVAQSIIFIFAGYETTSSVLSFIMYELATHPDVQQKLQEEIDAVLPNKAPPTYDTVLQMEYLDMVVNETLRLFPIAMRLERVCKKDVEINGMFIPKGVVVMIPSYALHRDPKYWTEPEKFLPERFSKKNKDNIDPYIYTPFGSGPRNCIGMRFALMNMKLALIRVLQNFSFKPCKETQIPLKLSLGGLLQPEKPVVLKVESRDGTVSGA
Protocol: as §1
P450-Glo™ CYP3A4 Screening System, manufacturer: Promega
as §2, §3, §4, §5, §6

[4] = biological target: T4, CYP2D6 (Homo sapiens, UniProt P10635); assay: Inhibition of cytochrome P450 isoenzyme CYP2D6 (P450-Glo); format: in vitro ADME; details: estimated from inhibition rates at 10 μM and 1 μM; for IC50: read-out: IC50, inhibition against CYP2D6
T4 construct: purchased Promega
T4 sequence (P10635 whole entry): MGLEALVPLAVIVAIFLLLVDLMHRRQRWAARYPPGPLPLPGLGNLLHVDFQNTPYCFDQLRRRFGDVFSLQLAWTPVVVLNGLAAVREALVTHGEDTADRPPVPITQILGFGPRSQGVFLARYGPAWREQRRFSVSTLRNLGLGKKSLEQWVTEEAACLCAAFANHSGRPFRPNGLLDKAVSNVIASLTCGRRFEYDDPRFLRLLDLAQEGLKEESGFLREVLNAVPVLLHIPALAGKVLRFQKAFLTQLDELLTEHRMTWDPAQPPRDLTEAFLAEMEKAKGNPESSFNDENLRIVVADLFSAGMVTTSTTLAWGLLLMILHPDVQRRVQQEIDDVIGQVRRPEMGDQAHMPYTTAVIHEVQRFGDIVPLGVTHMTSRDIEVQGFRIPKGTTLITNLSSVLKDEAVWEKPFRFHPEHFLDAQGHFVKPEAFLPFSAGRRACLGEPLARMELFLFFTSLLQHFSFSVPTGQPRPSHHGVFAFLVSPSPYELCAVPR
Protocol: as §1
P450-Glo™ CYP2D6 Screening System, manufacturer: Promega
as §2, §3, §4, §5, §6

Molecule | inhibition at 0.5 mg/kg [1] | IC50, inhibition against CYP1A2 [2] | IC50, inhibition against CYP3A4 [3] | IC50 [3] | Inhibition rate (%) against the enzymatic activity of VAP-1 (ex-vivo) [1] | IC50, inhibition against CYP2D6 [4] | IC50 [4] | IC50 ([2]; read-out: IC50, inhibition against CYP1A2)
NC/C(=C\F)COc1ccc(C(=O)Nc2ccccc2)cc1 [TM1-E, (E)-N-phenyl-4-((2-aminomethyl-3-fluoroallyl)oxy)-benzamide trifluoroacetate] | 96.7 ± 2.2% | – | – | – | – | – | – | –
NC/C(=C/F)COc1ccc2c(c1)CCNC2=O [TM26-Z, (Z)-6-((2-aminomethyl-3-fluoroallyl)oxy)-3,4-dihydroisoquinolin-1(2H)-one trifluoroacetate] | 86.6 ± 5.5% | – | – | – | – | – | – | –
NC/C(=C\F)COc1ccc(-c2ncccn2)cc1 [TM39-E, (E)-2-(4-(2-pyrimidyl)phenoxymethyl)-3-fluoroallylamine trifluoroacetate] | 93 ± 2.7% | – | – | – | – | – | – | –
(E)-6-((2-(methylamino)-3-fluoroallyl)oxy)-2-methyl-3,4-dihydroisoquinolin-1(2H)-one trifluoroacetate [TM66-E] | – | do not have significant inhibitions | do not have significant inhibitions | > 10 µM | 92.3 ± 1.9% | do not have significant inhibitions | > 10 µM | –
(E)-6-((2-(methylamino)-3-fluoroallyl)oxy)-3,3-dimethyl-3,4-dihydro-isoquinolin-1(2H)-one trifluoroacetate [TM38-E] | – | do not have significant inhibitions | do not have significant inhibitions | > 10 µM | 92.7 ± 3.0% | do not have significant inhibitions | > 10 µM | 6.73 ± 0.39 µM
